Assay results taken from ChEMBL document CHEMBL3044651, “Synthesis, fungicidal activity, and structure-activity relationship of spiro-compounds containing macrolactam (macrolactone) and thiadiazoline rings” (J Agric Food Chem, 2010).
Values after ≈ are worked out from the molar mass of the structure shown.

Tests used:
Format in all cases: functional, organism-based
Phomopsis asparagi = assay: Antifungal activity against Phomopsis asparagi by mycelium growth rate test
Pyricularia oryzae = assay: Antifungal activity against Magnaporthe oryzae by mycelium growth rate test
Rhizoctonia solani = assay: Antifungal activity against Rhizoctonia solani Kuhn by mycelium growth rate test
Sclerotinia sclerotiorum = assay: Antifungal activity against Sclerotinia sclerotiorum by mycelium growth rate test
Botrytis cinerea = assay: Antifungal activity against Botryotinia fuckeliana by mycelium growth rate test

| SMILES | EC50 (Phomopsis asparagi) [µg/mL] | EC50 (Pyricularia oryzae) [µg/mL] | EC50 (Rhizoctonia solani) [µg/mL] | EC50 (Sclerotinia sclerotiorum) [µg/mL] | EC50 (Botrytis cinerea) [µg/mL] |
| --- | --- | --- | --- | --- | --- |
| O=C1CCCCCCCCCCC2(CCCO1)N=N/C(=N/c1ccc(Cl)cc1)S2 (stereo not given) | 42.5 (≈ 97.4 µM) | 338 (≈ 776 µM) | 126 (≈ 290 µM) | 59.9 (≈ 137 µM) | 49.9 (≈ 115 µM) |
| O=C1CCCCCCCCCCC2(CCCN1)N=N/C(=N/c1ccc(Cl)c(Cl)c1)S2 (stereo not given) | 9.02 (≈ 19.2 µM) | 0.72 (≈ 1.53 µM) | 36.8 (≈ 78.4 µM) | 15 (≈ 32 µM) | 34.2 (≈ 72.9 µM) |
| N#Cc1c(Cl)c(Cl)c(Cl)c(C#N)c1Cl [CHLOROTHALONIL] | 4.35 (≈ 16.4 µM) | – | – | 0.41 (≈ 1.54 µM) | – |
| Cc1ccc(C)c(/N=C2/N=NC3(CCCCCCCCCCC(=O)OCCC3)S2)c1 (stereo not given) | 208 (≈ 485 µM) | 3120 (≈ 7270 µM) | 422 (≈ 982 µM) | 163 (≈ 379 µM) | 126 (≈ 294 µM) |
| Cc1cccc(/N=C2/N=NC3(CCCCCCCCCCC(=O)NCCC3)S2)c1 (stereo not given) | 9.67 (≈ 23.3 µM) | 63.2 (≈ 152 µM) | 30.7 (≈ 74.1 µM) | 4.42 (≈ 10.7 µM) | 6.42 (≈ 15.5 µM) |
| CN(C)C(=S)SSC(=S)N(C)C [THIRAM] | – | – | 0.9 (≈ 3.74 µM) | – | – |
| Cc1ccc(C)c(/N=C2/N=NC3(CCCCCCCCCCC(=O)NCCC3)S2)c1 (stereo not given) | 16.4 (≈ 38.3 µM) | 86.6 (≈ 202 µM) | 5.62 (≈ 13.1 µM) | 34.3 (≈ 80 µM) | 18.6 (≈ 43.3 µM) |
| O=C1CCCCCCCCCCC2(CCCN1)N=N/C(=N/c1cc(Cl)ccc1Cl)S2 (stereo not given) | 222 (≈ 472 µM) | 1.11 (≈ 2.36 µM) | 41.8 (≈ 89 µM) | 109 (≈ 233 µM) | 29.6 (≈ 63 µM) |
| O=C1CCCCCCCCCCC2(CCCN1)N=N/C(=N/c1ccccc1Br)S2 (stereo not given) | 60.3 (≈ 126 µM) | 57.6 (≈ 120 µM) | 56.1 (≈ 117 µM) | 533 (≈ 1110 µM) | 19.9 (≈ 41.4 µM) |
| CC(C)OC(=O)C(C(=O)OC(C)C)=C1SCCS1 [ISOPROTHIOLANE] | – | 7.19 (≈ 24.8 µM) | – | – | – |
| Cc1cc(C)nc(Nc2ccccc2)n1 [PYRIMETHANIL] | – | – | – | – | 0.14 (≈ 0.703 µM) |
| Cc1cccc(/N=C2/N=NC3(CCCCCCCCCCC(=O)NCCC3)S2)c1C (stereo not given) | 14.8 (≈ 34.6 µM) | 199 (≈ 465 µM) | 22.4 (≈ 52.2 µM) | 36.5 (≈ 85.2 µM) | 22.6 (≈ 52.7 µM) |
| O=C1CCCCCCCCCCC2(CCCO1)N=N/C(=N/c1ccc(Br)cc1)S2 (stereo not given) | 29.2 (≈ 60.8 µM) | 338 (≈ 704 µM) | 17.1 (≈ 35.6 µM) | 38.3 (≈ 79.7 µM) | 49.9 (≈ 104 µM) |
| Cc1ccccc1/N=C1/N=NC2(CCCCCCCCCCC(=O)NCCC2)S1 (stereo not given) | 73.8 (≈ 178 µM) | 78.4 (≈ 189 µM) | 125 (≈ 301 µM) | 375 (≈ 905 µM) | 4.21 (≈ 10.2 µM) |
| Cc1ccc(/N=C2/N=NC3(CCCCCCCCCCC(=O)NCCC3)S2)c(C)c1 (stereo not given) | 5.26 (≈ 12.3 µM) | 30.9 (≈ 72.1 µM) | 26.8 (≈ 62.4 µM) | 55.7 (≈ 130 µM) | 9.63 (≈ 22.5 µM) |
| COc1ccccc1/N=C1/N=NC2(CCCCCCCCCCC(=O)NCCC2)S1 (stereo not given) | 517 (≈ 1200 µM) | 398 (≈ 924 µM) | 37.9 (≈ 88 µM) | 21.1 (≈ 49 µM) | 21.8 (≈ 50.7 µM) |
| Cc1ccc(/N=C2/N=NC3(CCCCCCCCCCC(=O)NCCC3)S2)cc1 (stereo not given) | 14.5 (≈ 35 µM) | 139 (≈ 335 µM) | 71.8 (≈ 173 µM) | 34.1 (≈ 82.2 µM) | 25.1 (≈ 60.5 µM) |
| O=C1CCCCCCCCCCC2(CCCN1)N=N/C(=N/c1ccccc1)S2 (stereo not given) | 14.2 (≈ 35.4 µM) | 41.5 (≈ 104 µM) | 42.1 (≈ 105 µM) | 9.92 (≈ 24.8 µM) | 5.01 (≈ 12.5 µM) |
| O=C1CCCCCCCCCCC2(CCCN1)N=N/C(=N/c1ccccc1Cl)S2 (stereo not given) | 24.5 (≈ 56.3 µM) | 41.5 (≈ 95.4 µM) | 31.8 (≈ 73.1 µM) | 242 (≈ 555 µM) | 14.9 (≈ 34.2 µM) |
| O=C1CCCCCCCCCCC2(CCCO1)N=N/C(=N/c1ccccc1Cl)S2 (stereo not given) | 116 (≈ 267 µM) | 211 (≈ 485 µM) | 159 (≈ 365 µM) | 169 (≈ 388 µM) | 43.8 (≈ 100 µM) |
| O=C1CCCCCCCCCCC2(CCCN1)N=N/C(=N/c1cccc3ccccc13)S2 (stereo not given) | 46.1 (≈ 102 µM) | 196 (≈ 434 µM) | 17.8 (≈ 39.5 µM) | 767 (≈ 1700 µM) | 15.7 (≈ 34.9 µM) |
| O=C1CCCCCCCCCCC2(CCCO1)N=N/C(=N/c1ccccc1Br)S2 (stereo not given) | 53.5 (≈ 111 µM) | 246 (≈ 512 µM) | 208 (≈ 432 µM) | 205 (≈ 426 µM) | 36.4 (≈ 75.8 µM) |
| O=C1CCCCCCCCCCC2(CCCN1)N=N/C(=N/c1ccc(Cl)cc1)S2 (stereo not given) | 102 (≈ 234 µM) | 0.054 (≈ 0.124 µM) | 39.5 (≈ 90.8 µM) | 48.2 (≈ 111 µM) | 18.7 (≈ 42.9 µM) |
| O=C1CCCCCCCCCCC2(CCCN1)N=N/C(=N/Cc1ccccc1)S2 (stereo not given) | 21.3 (≈ 51.4 µM) | 117 (≈ 282 µM) | 23.5 (≈ 56.7 µM) | 8.32 (≈ 20.1 µM) | 14.4 (≈ 34.8 µM) |
| COc1ccc(/N=C2/N=NC3(CCCCCCCCCCC(=O)NCCC3)S2)cc1 (stereo not given) | 20.6 (≈ 47.7 µM) | 57.8 (≈ 134 µM) | 93 (≈ 216 µM) | 87.2 (≈ 203 µM) | 6.47 (≈ 15 µM) |
